Measured values from PubChem BioAssay AID1919006 (Molecular Pharmacology Branch, DTP, NCI, 2023).
Values joined by “and” are separate entries in the source; they are usually repeats but may differ in a detail not shown here. Identical values can stand only once.

Test system: 885512-296-R-J2-PDC complex spheroid growth, % test/control
Test: Anticancer human tumor 885512-296-R-J2-PDC patient-derived breast carcinoma cell line growth inhibition [AhR]
Settings: for viability, T/C: stronger effect = lower value; active = viability on the fitted dose curve at most 10% of control; inactive = the rest
How it was run: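 Spheroids combined tumor cells with HUVEC endothelial cells and human MSCs as stroma. AhR antagonists were paired with standard or investigational drugs, each dosed in half-log steps down from near clinical Cmax, or from 10 microM where Cmax was unknown.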

[1] = curve of first compound, second compound 0.1 µM
[2] = curve of first compound, second compound 0.316 µM
[3] = curve of first compound, second compound 1 µM
[4] = curve of first compound, second compound 3.16 µM
[5] = curve of first compound, second compound 10 µM
[6] = second compound 0.1 µM, first compound 0.0316 µM
[7] = second compound 0.1 µM, first compound 0.1 µM
[8] = second compound 0.1 µM, first compound 0.316 µM
[9] = second compound 0.1 µM, first compound 1 µM
[10] = second compound 0.1 µM, first compound 3.16 µM
[11] = second compound 0.1 µM, first compound 10 µM
[12] = second compound 0.316 µM, first compound 0.0316 µM
[13] = second compound 0.316 µM, first compound 0.1 µM
[14] = second compound 0.316 µM, first compound 0.316 µM
[15] = second compound 0.316 µM, first compound 1 µM
[16] = second compound 0.316 µM, first compound 3.16 µM
[17] = second compound 0.316 µM, first compound 10 µM
[18] = second compound 1 µM, first compound 0.0316 µM
[19] = second compound 1 µM, first compound 0.1 µM
[20] = second compound 1 µM, first compound 0.316 µM
[21] = second compound 1 µM, first compound 1 µM
[22] = second compound 1 µM, first compound 3.16 µM
[23] = second compound 1 µM, first compound 10 µM
[24] = second compound 3.16 µM, first compound 0.0316 µM
[25] = second compound 3.16 µM, first compound 0.1 µM
[26] = second compound 3.16 µM, first compound 0.316 µM
[27] = second compound 3.16 µM, first compound 1 µM
[28] = second compound 3.16 µM, first compound 3.16 µM
[29] = second compound 3.16 µM, first compound 10 µM
[30] = second compound 10 µM, first compound 0.0316 µM
[31] = second compound 10 µM, first compound 0.1 µM
[32] = second compound 10 µM, first compound 0.316 µM
[33] = second compound 10 µM, first compound 1 µM
[34] = second compound 10 µM, first compound 3.16 µM
[35] = second compound 10 µM, first compound 10 µM
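Note: spheroids exposed to compounds for seven days.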

COc1cc(Nc2ncc3c(n2)-c2ccc(Cl)cc2C(c2c(F)cccc2OC)=NC3)ccc1C(=O)O + CC(CO)NC(=O)c1cc(-c2ccc(Cl)cc2)nn(-c2cnn(C)c2)c1=O
inactive: viability, T/C [6] 53% | viability, T/C [7] 48.3% | viability, T/C [8] 51.4% | viability, T/C [9] 57.6% | viability, T/C [10] 46.4% | viability, T/C [11] 48.3% | viability, T/C [12] 54.9% | viability, T/C [13] 45.5% | viability, T/C [14] 55% | viability, T/C [15] 43.3% | viability, T/C [16] 45% | viability, T/C [17] 37% | viability, T/C [18] 57.6% | viability, T/C [19] 51.2% | viability, T/C [20] 55.7% | viability, T/C [21] 46.7% | viability, T/C [22] 43% | viability, T/C [23] 50.2% | viability, T/C [24] 59.6% | viability, T/C [25] 55.5% | viability, T/C [26] 51.2% | viability, T/C [27] 55.5% | viability, T/C [28] 44.6% | viability, T/C [29] 46.2% | viability, T/C [30] 48.5% | viability, T/C [31] 59.5% | viability, T/C [32] 58.4% | viability, T/C [33] 62.3% | viability, T/C [34] 56.2% | viability, T/C [35] 50.5%
234 nM: IC50 [2]
456 nM: IC50 [3]
> 10000 nM: IC50 [5]
2440 nM: IC50 [1]
1350 nM: IC50 [4]

CC[C@@]1(O)C(=O)OCc2c1cc1n(c2=O)Cc2cc3c(CN(C)C)c(O)ccc3nc2-1
inactive: viability, T/C (compound 0.000316 µM) 105% and 92.5% and 101% | viability, T/C (compound 0.001 µM) 101% and 96.7% and 108% | viability, T/C (compound 0.00316 µM) 65.5% and 69.2% and 88% | viability, T/C (compound 0.01 µM) 31.4% and 22.4% and 59.5%
active: viability, T/C (compound 0.1 µM) 6.75% and 6.73% and 5.44%
5.36 nM and 5.11 nM and 11.7 nM: IC50 (curve of compound)
6.59% and 7.5% and 7.58%: viability, T/C (compound 0.0316 µM)

COc1cc(Nc2ncc3c(n2)-c2ccc(Cl)cc2C(c2c(F)cccc2OC)=NC3)ccc1C(=O)O + Cc1ccccc1N=Nc1ccc(NC(=O)c2ccnn2C)c(C)c1
4100 nM: IC50 [1]
5480 nM: IC50 [3]
inactive: viability, T/C [6] 61.3% | viability, T/C [7] 51.4% | viability, T/C [8] 59.2% | viability, T/C [9] 59.2% | viability, T/C [10] 52.2% | viability, T/C [11] 38.9% | viability, T/C [12] 62.9% | viability, T/C [13] 48.8% | viability, T/C [14] 57.8% | viability, T/C [15] 50.6% | viability, T/C [16] 53.5% | viability, T/C [17] 47.6% | viability, T/C [18] 56.8% | viability, T/C [19] 54.8% | viability, T/C [20] 65.9% | viability, T/C [21] 58.1% | viability, T/C [22] 46.2% | viability, T/C [23] 49% | viability, T/C [24] 51.4% | viability, T/C [25] 46.6% | viability, T/C [26] 55% | viability, T/C [27] 54.4% | viability, T/C [28] 47.1% | viability, T/C [29] 43.3% | viability, T/C [30] 45.6% | viability, T/C [31] 40.9% | viability, T/C [32] 40.6% | viability, T/C [33] 39.6% | viability, T/C [34] 36.5% | viability, T/C [35] 37.7%
> 10000 nM: IC50 [2]
1980 nM: IC50 [4]
< 31.6 nM: IC50 [5]

CC1COCCN1c1cc(C2(S(C)(=N)=O)CC2)nc(-c2ccnc3[nH]ccc23)n1 (stereo unspecified) + Cc1ccccc1N=Nc1ccc(NC(=O)c2ccnn2C)c(C)c1
1700 nM: IC50 [2]
1790 nM: IC50 [3]
inactive: viability, T/C [6] 108% | viability, T/C [7] 102% | viability, T/C [8] 96.3% | viability, T/C [9] 87% | viability, T/C [10] 19% | viability, T/C [12] 103% | viability, T/C [13] 127% | viability, T/C [14] 106% | viability, T/C [15] 77.9% | viability, T/C [16] 17.9% | viability, T/C [18] 108% | viability, T/C [19] 117% | viability, T/C [20] 95% | viability, T/C [21] 83.6% | viability, T/C [22] 17.4% | viability, T/C [24] 90% | viability, T/C [25] 92% | viability, T/C [26] 97.6% | viability, T/C [27] 85.7% | viability, T/C [28] 17.9% | viability, T/C [30] 56.9% | viability, T/C [31] 53.3% | viability, T/C [32] 49.6% | viability, T/C [33] 48.2% | viability, T/C [34] 13.4%
1840 nM: IC50 [4]
637 nM: IC50 [5]
1870 nM: IC50 [1]
active: viability, T/C [11] 4.98% | viability, T/C [17] 5.69% | viability, T/C [23] 5.01% | viability, T/C [29] 5.33% | viability, T/C [35] 5.82%

Nc1ccn(C2OC(CO)C(O)C2(F)F)c(=O)n1 (stereo unspecified)
< 31.6 nM: IC50 (curve of compound)
active: viability, T/C (compound 0.0316 µM) 3% and 2.24% and 2.66% | viability, T/C (compound 0.1 µM) 3.22% and 2.41% and 2.65% | viability, T/C (compound 0.316 µM) 3.38% and 3.96% and 3.68% | viability, T/C (compound 1 µM) 3.04% and 4.06% and 3.38% | viability, T/C (compound 3.16 µM) 3.46% and 3.77% and 3.42% | viability, T/C (compound 10 µM) 3.08% and 3.9% and 2.46%

CC(C)CC(NC(=O)C(Cc1ccccc1)NC(=O)c1cnccn1)B(O)O (stereo unspecified) + Cc1ccccc1N=Nc1ccc(NC(=O)c2ccnn2C)c(C)c1
3.21 nM: IC50 [5]
6.29 nM: IC50 [3]
6.14 nM: IC50 [4]
inactive: viability, T/C (second compound 0.1 µM, first compound 0.000949 µM) 96.7% | viability, T/C (second compound 0.1 µM, first compound 0.003 µM) 105% | viability, T/C (second compound 0.1 µM, first compound 0.00949 µM) 26.3% | viability, T/C (second compound 0.316 µM, first compound 0.000949 µM) 115% | viability, T/C (second compound 0.316 µM, first compound 0.003 µM) 122% | viability, T/C (second compound 0.316 µM, first compound 0.00949 µM) 26.6% | viability, T/C (second compound 1 µM, first compound 0.000949 µM) 111% | viability, T/C (second compound 1 µM, first compound 0.003 µM) 101% | viability, T/C (second compound 1 µM, first compound 0.00949 µM) 21.8% | viability, T/C (second compound 3.16 µM, first compound 0.000949 µM) 82% | viability, T/C (second compound 3.16 µM, first compound 0.003 µM) 94.2% | viability, T/C (second compound 3.16 µM, first compound 0.00949 µM) 26.8% | viability, T/C (second compound 10 µM, first compound 0.000949 µM) 58% | viability, T/C (second compound 10 µM, first compound 0.003 µM) 50.3% | viability, T/C (second compound 10 µM, first compound 0.00949 µM) 25.8%
active: viability, T/C (second compound 0.1 µM, first compound 0.03 µM) 1.3% | viability, T/C (second compound 0.1 µM, first compound 0.0949 µM) 0.26% | viability, T/C (second compound 0.1 µM, first compound 0.3 µM) 0.15% | viability, T/C (second compound 0.316 µM, first compound 0.03 µM) 1.13% | viability, T/C (second compound 0.316 µM, first compound 0.0949 µM) 0.18% | viability, T/C (second compound 0.316 µM, first compound 0.3 µM) 0.13% | viability, T/C (second compound 1 µM, first compound 0.03 µM) 1.27% | viability, T/C (second compound 1 µM, first compound 0.0949 µM) 0.5% | viability, T/C (second compound 1 µM, first compound 0.3 µM) 0.13% | viability, T/C (second compound 3.16 µM, first compound 0.03 µM) 1.47% | viability, T/C (second compound 3.16 µM, first compound 0.0949 µM) 0.16% | viability, T/C (second compound 3.16 µM, first compound 0.3 µM) 0.14% | viability, T/C (second compound 10 µM, first compound 0.03 µM) 1.46% | viability, T/C (second compound 10 µM, first compound 0.0949 µM) 0.3% | viability, T/C (second compound 10 µM, first compound 0.3 µM) 0.18%
7.08 nM: IC50 [2]
6.58 nM: IC50 [1]

COc1cc(C2c3cc4c(cc3C(OC3OC5COC(C)OC5C(O)C3O)C3COC(=O)C23)OCO4)cc(OC)c1O (stereo unspecified)
inactive: viability, T/C (compound 0.0316 µM) 107% and 84.7% and 91.2% | viability, T/C (compound 0.1 µM) 96% and 92.5% and 87.4% | viability, T/C (compound 0.316 µM) 78.1% and 72.5% and 59.1% | viability, T/C (compound 1 µM) 29.6% and 44.8% and 14.3%
613 nM and 774 nM and 399 nM: IC50 (curve of compound)
active: viability, T/C (compound 10 µM) 8.19% and 5.47% and 7.82%
10.7% and 9.52% and 9.14%: viability, T/C (compound 3.16 µM)

CC(C)c1c(-c2ccccc2)nc2c(C#N)c[nH]n2c1=O + Cc1cncc(-c2nc(NCCc3c[nH]c4ccccc34)c3ncn(C(C)C)c3n2)c1
> 10000 nM: IC50 [1] | IC50 [2] | IC50 [3] | IC50 [4]
inactive: viability, T/C [6] 108% | viability, T/C [7] 108% | viability, T/C [8] 101% | viability, T/C [9] 109% | viability, T/C [10] 97.1% | viability, T/C [11] 86.6% | viability, T/C [12] 104% | viability, T/C [13] 108% | viability, T/C [14] 105% | viability, T/C [15] 93.3% | viability, T/C [16] 102% | viability, T/C [17] 89.3% | viability, T/C [18] 94.5% | viability, T/C [19] 95.4% | viability, T/C [20] 83% | viability, T/C [21] 83.2% | viability, T/C [22] 80.8% | viability, T/C [23] 81.8% | viability, T/C [24] 62% | viability, T/C [25] 59.7% | viability, T/C [26] 56.2% | viability, T/C [27] 62.1% | viability, T/C [28] 60.5% | viability, T/C [29] 52.3% | viability, T/C [30] 17% | viability, T/C [31] 18.7% | viability, T/C [32] 17.9% | viability, T/C [33] 14.5% | viability, T/C [34] 17.9% | viability, T/C [35] 17.9%
< 31.6 nM: IC50 [5]
